Some results are limits rather than exact numbers.

In assay [1] the target is CRBN-DDB1 protein complex (Homo sapiens, UniProt Q96SW2). The assay is described as follows: Fluorescence polarization (FP) assay, displacement of Cy5-labelled thalidomide. Also: 25 nM CRBN-DDB1. The settings on record: read-out: CRBN binding Ki. As to the method:
The test solution was added to a 384-well assay plate.
The plate was spun-down (1 min, 1000 rpm, 22° C.) and then shaken using a VibroTurbulator for 10 min at room temperature (20-25° C.), with the frequency set to level 3. The assay plate with protein and the tracer was incubated for 60 min at room temperature (20-25° C.) prior to read-out with a plate reader.
The FP experiment was carried out with various concentrations of the test compounds in order to measure Ki values.

Another assay has as its system SALL4. The assay is described as follows: SALL4 degradation assay, Kelly cell line (western blot densitometry). The assay is classed as cell-based. The settings on record: Kelly cells, after 24 h. As to the method:
(§1) Kelly cells were maintained in RPMI-1640 medium, supplemented with penicillin/streptomycin and 10% Fetal Bovine Serum (FBS). Cells were seeded on 6-well plates, and the compounds to be tested were added at the desired concentration range. Final DMSO concentration was 0.25%. After 24 h incubation (37° C., 5% CO2), cells were washed and cell lysates were prepared using RIPA lysis buffer. The amount of protein was determined via BCA assay, and the appropriate quantity was then loaded on the precast gel for the protein separation. After primary and secondary antibody staining, the membranes were washed and signals developed. The densitometry analysis was implemented to obtain the numeric values used later in the protein level evaluation process.
Densitometry values are normalized to the loading control (β-ACTIN) and presented as % of DMSO control in Table 2, below, using the following labels: • ≤25% for 0-25% of SALL4 protein reduction, • >25% for 26-74% of SALL4 protein reduction, • ≥75% for 75-100% of SALL4 protein reduction.
Background: A western blot detects proteins with antibodies after separation by electrophoresis.

The subject of another assay is IKZF3. The assay is described as follows: IKZF3 degradation assay, H929 cell line (western blot densitometry). The assay is classed as cell-based. The settings on record: H929 cells, after 24 h. The procedure: as §1, with “H929 cells were” for “Kelly cells were”, “Bovine Serum (FBS) and 0.05 mM 2-Mercaptoethanol. Cells were” for “Bovine Serum (FBS). Cells were”, “seeded on 6- or 12-well plates, and” for “seeded on 6-well plates, and”, “cells were harvested, washed and” for “cells were washed and”, “and secondary Ab staining, the” for “and secondary antibody staining, the”
Densitometry values are normalized to the loading control (β-ACTIN) and presented as % of DMSO control in Tables 4A and 4B, below, using the following labels: • ≤25% for 0-25% of IKZF3 protein reduction, • >25% for 26-74% of IKZF3 protein reduction, • ≥75% for 75-100% of IKZF3 protein reduction.

For the next assay, the system named is IKZF1. Description: IKZF1 degradation assay, H929 cell line (western blot densitometry). The settings on record: H929 cells, after 24 h. The assay is classed as cell-based. The procedure:
H929 cells were maintained in RPMI-1640 medium, supplemented with penicillin/streptomycin, 10% Fetal Bovine Serum (FBS) and 0.05 mM 2-Mercaptoethanol. Cells were seeded on 6- or 12-well plates, and the compounds to be tested were added at the desired concentration range. Final DMSO concentration was 0.25%. After 24 h incubation (37° C., 5% CO2), cells were harvested, washed and cell lysates were prepared using RIPA lysis buffer. The amount of protein was determined via BCA assay, and the appropriate quantity was then loaded on the precast gel for the protein separation. After primary and secondary Ab staining, the membranes were washed and signals developed. The densitometry analysis was implemented to obtain the numeric values used later in the protein level evaluation process.
Densitometry values are normalized to the loading control (β-ACTIN) and presented as % of DMSO control in Table 3, below, using the following labels: • ≤25% for 0-25% of IKZF1 protein reduction, • >25% for 26-74% of IKZF1 protein reduction, • ≥75% for 75-100% of IKZF1 protein reduction.

Sequence of CRBN-DDB1 protein complex (Q96SW2 whole entry): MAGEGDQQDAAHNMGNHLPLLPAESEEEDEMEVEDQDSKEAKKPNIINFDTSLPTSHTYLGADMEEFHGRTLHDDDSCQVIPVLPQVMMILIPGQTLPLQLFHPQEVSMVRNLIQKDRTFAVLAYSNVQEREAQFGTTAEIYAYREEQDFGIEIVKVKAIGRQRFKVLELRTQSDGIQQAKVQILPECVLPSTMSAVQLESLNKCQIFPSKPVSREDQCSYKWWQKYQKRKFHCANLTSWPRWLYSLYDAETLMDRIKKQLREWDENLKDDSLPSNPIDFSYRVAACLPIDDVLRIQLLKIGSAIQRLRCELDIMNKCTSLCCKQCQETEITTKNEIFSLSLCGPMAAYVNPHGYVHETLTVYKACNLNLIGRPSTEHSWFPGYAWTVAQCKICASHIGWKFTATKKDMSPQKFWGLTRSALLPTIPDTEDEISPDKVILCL
Sequence of CRBN-DDB1 protein complex (Q16531 whole entry partner): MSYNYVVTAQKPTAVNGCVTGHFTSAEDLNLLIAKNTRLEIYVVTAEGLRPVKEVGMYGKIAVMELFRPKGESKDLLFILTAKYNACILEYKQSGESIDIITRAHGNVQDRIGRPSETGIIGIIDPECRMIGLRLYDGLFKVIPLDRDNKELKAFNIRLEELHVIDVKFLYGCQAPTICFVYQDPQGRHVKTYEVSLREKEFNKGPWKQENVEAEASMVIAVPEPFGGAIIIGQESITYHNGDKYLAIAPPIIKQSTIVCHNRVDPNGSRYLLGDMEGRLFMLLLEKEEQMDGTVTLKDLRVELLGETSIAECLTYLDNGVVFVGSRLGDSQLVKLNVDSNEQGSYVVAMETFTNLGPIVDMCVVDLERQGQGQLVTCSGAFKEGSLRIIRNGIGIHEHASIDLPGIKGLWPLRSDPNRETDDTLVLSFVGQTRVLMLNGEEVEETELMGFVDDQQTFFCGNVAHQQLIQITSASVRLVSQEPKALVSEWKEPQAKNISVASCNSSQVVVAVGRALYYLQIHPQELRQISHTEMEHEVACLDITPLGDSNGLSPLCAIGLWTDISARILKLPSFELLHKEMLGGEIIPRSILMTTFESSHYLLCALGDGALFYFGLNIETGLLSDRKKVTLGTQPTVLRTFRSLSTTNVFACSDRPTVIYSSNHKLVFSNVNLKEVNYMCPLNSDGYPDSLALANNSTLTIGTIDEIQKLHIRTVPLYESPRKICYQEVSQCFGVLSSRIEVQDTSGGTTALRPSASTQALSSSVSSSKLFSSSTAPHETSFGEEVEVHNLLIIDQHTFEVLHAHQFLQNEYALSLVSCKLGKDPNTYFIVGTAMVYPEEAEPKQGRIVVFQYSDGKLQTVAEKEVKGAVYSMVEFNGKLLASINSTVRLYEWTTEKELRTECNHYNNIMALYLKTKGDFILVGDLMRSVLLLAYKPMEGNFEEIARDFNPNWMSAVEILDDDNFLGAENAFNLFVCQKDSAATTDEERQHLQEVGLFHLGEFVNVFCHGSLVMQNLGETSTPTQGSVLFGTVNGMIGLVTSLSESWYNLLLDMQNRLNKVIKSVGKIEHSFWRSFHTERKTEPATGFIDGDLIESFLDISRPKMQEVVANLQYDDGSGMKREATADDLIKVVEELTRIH

As to `Cc1nc2cc(CNC(=O)C(F)(F)c3ccc(Cl)cc3)ccc2cc1C1CCC(=O)NC1=O` (centres unmarked) [Compound 16, 2-(4-chlorophenyl)-N-{[3-(2,6-dioxopiperidin-3-yl)-2-methylquinolin-7-yl]methyl}-2,2-difluoroacetamide], the Ki in assay [1] was less than 1000 nM.
The same measure, in the same setting: under `O=C1CCC(c2cnc3cccc([N+](=O)[O-])c3c2)C(=O)N1` (centres unmarked) [Compound 12, 3-(5-nitroquinolin-3-yl)piperidine-2,6-dione] stands 1000 to 5000 nM.
On the same count and under the same terms, under `Cc1nc2c(N)cccc2cc1C1CCC(=O)NC1=O` (centres unmarked) [Compound 10, 3-(8-amino-2-methylquinolin-3-yl)piperidine-2,6-dione] stands less than 1000 nM; under `Cc1nc2ccc([N+](=O)[O-])cc2cc1C1CCC(=O)NC1=O` (centres unmarked) [Compound 5, 3-(2-methyl-6-nitroquinolin-3-yl)piperidine-2,6-dione], 5000 to 10000 nM; under `Cc1nc2c(NS(=O)(=O)c3ccccc3OC(F)(F)F)cccc2cc1C1CCC(=O)NC1=O` (centres unmarked) [Compound 20, N-(3-(2,6-dioxopiperidin-3-yl)-2-methylquinolin-8-yl)-2-(trifluoromethoxy)benzenesulfonamide], 1000 to 5000 nM.
Still for that read-out and setting: to `Cc1nc2c(cnn2C)cc1C1CCC(=O)NC1=O` (centres unmarked) [Compound 4, 3-(1,6-dimethyl-1H-pyrazolo[3,4-b]pyridin-5-yl)piperidine-2,6-dione] belongs 1000 to 5000 nM.
Consider `Cc1nc2cccc(N)c2c(=O)n1C1CCC(=O)NC1=O` (centres unmarked) [CC-122], for which the “% of SALL4 protein reduction” value in the assay with SALL4 (at 1 μM), in the assay with SALL4 (at 10 μM) and in the assay with SALL4 (at 20 μM) was ≥75% (≥75% for 75-100% of SALL4 protein reduction) in each case.
In the case of `Cc1ccc(NC(=O)NCc2ccc3cc(C4CCC(=O)NC4=O)c(C)nc3c2)cc1Cl` (centres unmarked) [Compound 15, 1-(3-chloro-4-methylphenyl)-3-{[3-(2,6-dioxopiperidin-3-yl)-2-methylquinolin-7-yl]methyl}urea], the Ki in assay [1] was less than 1000 nM.
On the same count and under the same terms, under `Cc1nc2ccccc2cc1C1CCC(=O)NC1=O` (centres unmarked) [Compound 13, 3-(2-methylquinolin-3-yl)piperidine-2,6-dione] stands 1000 to 5000 nM.
Still for that read-out and setting: to `Cc1nc2cccc(NS(=O)(=O)c3ccccc3OC(F)(F)F)c2cc1C1CCC(=O)NC1=O` (centres unmarked) [Compound 17, N-(3-(2,6-dioxopiperidin-3-yl)-2-methylquinolin-5-yl)-2-(trifluoromethoxy)benzenesulfonamide] belongs less than 1000 nM; to `Cc1nc2cccc([N+](=O)[O-])c2cc1C1CCC(=O)NC1=O` (centres unmarked) [Compound 2, 3-(2-methyl-5-nitroquinolin-3-yl)piperidine-2,6-dione], 1000 to 5000 nM; to `Cc1nc2ccc(N)cc2cc1C1CCC(=O)NC1=O` (centres unmarked) [Compound 11, 3-(6-amino-2-methylquinolin-3-yl)piperidine-2,6-dione], less than 1000 nM.
Turning to `O=C1CCC(N2C(=O)c3ccccc3C2=O)C(=O)N1` (centres unmarked) [Thalidomide, reference compound], the “% of SALL4 protein reduction” value in the assay on SALL4 (at 1 μM) is >25% (>25% for 26-74% of SALL4 protein reduction); with SALL4 (at 10 μM) it was >25% (>25% for 26-74% of SALL4 protein reduction); with SALL4 (at 20 μM), ≥75% (≥75% for 75-100% of SALL4 protein reduction). Further, the “% of IKZF3 (bottom band) protein reduction” value is listed as ≤25% (≤25% for 0-25% of IKZF3 protein reduction) in the assay with IKZF3 (at 1 μM), ≤25% (≤25% for 0-25% of IKZF3 protein reduction) with IKZF3 (at 10 μM) and >25% (>25% for 26-74% of IKZF3 protein reduction) in the assay on IKZF3 (at 20 μM). The “% of IKZF3 (upper band) protein reduction” value is on record as ≤25% (≤25% for 0-25% of IKZF3 protein reduction) in the assay with IKZF3 (at 1 μM), ≤25% (≤25% for 0-25% of IKZF3 protein reduction) in the assay on IKZF3 (at 10 μM) and >25% (>25% for 26-74% of IKZF3 protein reduction) in the assay on IKZF3 (at 20 μM). Besides, the “% of IKZF1 protein reduction” value in the assay with IKZF1 (at 1 μM) was ≤25% (≤25% for 0-25% of IKZF1 protein reduction); with IKZF1 (at 10 μM), ≤25% (≤25% for 0-25% of IKZF1 protein reduction); in the assay with IKZF1 (at 20 μM), >25% (>25% for 26-74% of IKZF1 protein reduction).
For `Cc1nc2c([N+](=O)[O-])cccc2cc1C1CCC(=O)NC1=O` (centres unmarked) [Compound 7, 3-(2-methyl-8-nitroquinolin-3-yl)piperidine-2,6-dione], in assay [1], the Ki was 1000 to 5000 nM.
Still for that read-out and setting: to `Cc1nc2cc(NS(=O)(=O)c3ccccc3OC(F)(F)F)ccc2cc1C1CCC(=O)NC1=O` (centres unmarked) [Compound 19, N-(3-(2,6-dioxopiperidin-3-yl)-2-methylquinolin-7-yl)-2-(trifluoromethoxy)benzenesulfonamide] belongs less than 1000 nM; to `Cc1nc2cc(N)ccc2cc1C1CCC(=O)NC1=O` (centres unmarked) [Compound 8, 3-(7-amino-2-methylquinolin-3-yl)piperidine-2,6-dione], less than 1000 nM; to `Cc1nc2c(Cl)cccc2cc1C1CCC(=O)NC1=O` (centres unmarked) [Compound 21, 3-(8-chloro-2-methylquinolin-3-yl)piperidine-2,6-dione], 1000 to 5000 nM.
For the molecule `Nc1cccc2ncc(C3CCC(=O)NC3=O)cc12` (centres unmarked) [Compound 14, 3-(5-aminoquinolin-3-yl)piperidine-2,6-dione], the Ki in assay [1] was less than 1000 nM.
Take `Cc1nc2cccc(F)c2cc1C1CCC(=O)NC1=O` (centres unmarked) [Compound 3, 3-(5-fluoro-2-methylquinolin-3-yl)piperidine-2,6-dione]: in assay [1], the Ki is 1000 to 5000 nM.
Same read-out and setting: under `Cc1nc2ccc(NS(=O)(=O)c3ccccc3OC(F)(F)F)cc2cc1C1CCC(=O)NC1=O` (centres unmarked) [Compound 18, N-(3-(2,6-dioxopiperidin-3-yl)-2-methylquinolin-6-yl)-2-(trifluoromethoxy)benzenesulfonamide] stands less than 1000 nM; under `Cc1nc2cc([N+](=O)[O-])ccc2cc1C1CCC(=O)NC1=O` (centres unmarked) [Compound 6, 3-(2-methyl-7-nitroquinolin-3-yl)piperidine-2,6-dione], 5000 to 10000 nM; under `Cc1nc2cc(C(=O)N[C@@H](C)C3CCCCC3)ccc2cc1C1CCC(=O)NC1=O` (stereo partly drawn) [Compound 9, N—((S)-1-cyclohexylethyl)-3-(2,6-dioxopiperidin-3-yl)-2-methylquinoline-7-carboxamide], 1000 to 5000 nM.

A word on the Ki: it is the equilibrium dissociation constant of an inhibitor or competing ligand from its target.
